Measurements reported in ChEMBL document CHEMBL1201862, “PubChem BioAssay data set” (2004).
Calls of active or inactive are those of the source.

How the values were obtained:
[1] = molecular target: Beta-2 adrenergic receptor (Homo sapiens, UniProt P07550); assay: ADRB2 activation measured by internalization – cell-based, FAP fluorogen, flow cytometry, cherry pick 1, dose response (AID 588763); format: functional
[2] = luciferase reporter signal suppression in cells – H4 neuroglioma cells, luminescence, dose response (AID 1990); format: functional, cell-based
[3] = Luminescence Cell-Based Dose Response HTS to Identify Inhibitors of 5'UTR Stem-Loop Driven Prion Protein mRNA Translation in H4 Neuroglioblastoma Cells. [Related pubchem assays: 1827 (Project Summary), 1813 (Primary HTS)]; format: functional
[4] = alpha-synuclein stem-loop luciferase translation blockers – H4 neuroglioma cells, luminescence, confirmation (AID 1988); format: functional, cell-based
[5] = molecular target: T1, Apoptotic protease-activating factor 1 (Homo sapiens, UniProt O14727); format: functional
T1 sequence (O14727 whole entry): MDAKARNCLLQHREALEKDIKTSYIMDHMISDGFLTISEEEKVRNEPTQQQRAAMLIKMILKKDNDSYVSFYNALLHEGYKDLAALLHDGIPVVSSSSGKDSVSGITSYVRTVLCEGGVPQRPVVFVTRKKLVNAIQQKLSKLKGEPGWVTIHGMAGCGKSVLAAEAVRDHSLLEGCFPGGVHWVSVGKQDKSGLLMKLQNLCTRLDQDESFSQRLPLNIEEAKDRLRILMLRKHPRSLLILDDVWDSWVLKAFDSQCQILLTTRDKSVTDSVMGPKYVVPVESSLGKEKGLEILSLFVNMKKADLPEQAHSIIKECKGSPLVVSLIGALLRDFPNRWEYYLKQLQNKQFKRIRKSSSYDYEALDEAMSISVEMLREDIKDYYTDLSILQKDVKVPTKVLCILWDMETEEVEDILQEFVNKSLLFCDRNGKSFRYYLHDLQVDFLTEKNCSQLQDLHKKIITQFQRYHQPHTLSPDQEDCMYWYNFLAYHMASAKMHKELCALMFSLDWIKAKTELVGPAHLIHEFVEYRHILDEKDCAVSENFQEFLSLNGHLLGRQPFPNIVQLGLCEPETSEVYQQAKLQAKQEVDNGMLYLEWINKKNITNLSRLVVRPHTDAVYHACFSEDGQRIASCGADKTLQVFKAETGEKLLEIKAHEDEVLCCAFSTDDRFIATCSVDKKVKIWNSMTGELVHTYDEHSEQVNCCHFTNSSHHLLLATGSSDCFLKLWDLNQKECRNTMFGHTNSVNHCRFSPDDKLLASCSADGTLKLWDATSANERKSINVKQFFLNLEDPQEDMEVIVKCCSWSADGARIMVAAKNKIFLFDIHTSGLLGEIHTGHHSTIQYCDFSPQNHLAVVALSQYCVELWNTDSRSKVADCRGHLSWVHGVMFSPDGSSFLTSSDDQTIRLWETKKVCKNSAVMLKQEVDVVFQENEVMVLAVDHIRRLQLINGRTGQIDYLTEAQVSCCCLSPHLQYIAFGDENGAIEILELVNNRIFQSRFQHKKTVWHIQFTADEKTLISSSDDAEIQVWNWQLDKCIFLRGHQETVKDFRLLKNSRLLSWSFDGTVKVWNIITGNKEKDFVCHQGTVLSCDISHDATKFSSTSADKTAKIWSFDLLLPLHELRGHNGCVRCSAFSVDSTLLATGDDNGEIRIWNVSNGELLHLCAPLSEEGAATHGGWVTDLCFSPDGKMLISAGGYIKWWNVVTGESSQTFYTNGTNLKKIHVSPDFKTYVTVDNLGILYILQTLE

[6] = NIH-3T3 fibroblast cytotoxicity, dose response, cytotoxicity control, cell-based, fluorescence, Alamar Blue, secondary assay (AID 2327); format: functional;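 note: NIH-3T3 mouse fibroblasts cultured with fluconazole at 8 µg/mL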
[7] = system: Streptococcus sp. 'group A'; assay: Streptococcus pyogenes SK(-)GAS viability under kanamycin – luminescence, BacTiterGlo, confirmation, counter-screen for streptokinase expression inhibitor project, dose response (AID 1900); format: functional, organism-based
[8] = fluconazole-exposed Candida albicans growth modulators – fluorescence, retest, confirmation (AID 2467); format: functional, cell-based
[9] = molecular target: Serine/threonine-protein phosphatase (Candida dubliniensis (strain CD36 / CBS 7987 / NCPF 3949 / NRRLY-17841) (Yeast), UniProt B9W6M3); assay: blockers of CaCl2-induced CDRE-lacZ signaling – S. cerevisiae, luminescence, secondary, dose response (AID 2388); format: functional, cell-based;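 note: yeast reporter cells carrying a calcineurin-responsive lacZ construct stimulated with calcium chloride; luminescent beta-galactosidase reporter signal in whole cells rather than isolated phosphatase activity; potency for inhibition where a drop in reporter signal means calcineurin blockade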
Chain of Serine/threonine-protein phosphatase (B9W6M3 whole entry): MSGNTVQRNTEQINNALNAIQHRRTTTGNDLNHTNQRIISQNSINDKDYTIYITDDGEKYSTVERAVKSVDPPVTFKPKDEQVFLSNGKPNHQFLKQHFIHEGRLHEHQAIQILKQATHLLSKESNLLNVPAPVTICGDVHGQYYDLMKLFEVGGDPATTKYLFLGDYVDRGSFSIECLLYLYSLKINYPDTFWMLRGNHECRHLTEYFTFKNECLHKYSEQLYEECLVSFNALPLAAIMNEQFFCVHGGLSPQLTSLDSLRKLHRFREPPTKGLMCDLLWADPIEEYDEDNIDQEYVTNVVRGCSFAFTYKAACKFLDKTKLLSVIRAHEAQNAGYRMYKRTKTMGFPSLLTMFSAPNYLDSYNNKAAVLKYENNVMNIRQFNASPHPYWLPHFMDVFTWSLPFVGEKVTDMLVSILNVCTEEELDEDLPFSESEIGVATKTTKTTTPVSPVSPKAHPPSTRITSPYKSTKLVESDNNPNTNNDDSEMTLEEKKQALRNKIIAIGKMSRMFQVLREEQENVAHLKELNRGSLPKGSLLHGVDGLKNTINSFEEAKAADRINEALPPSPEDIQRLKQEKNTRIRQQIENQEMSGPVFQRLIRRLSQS

Streptococcus = assay: GAS UMAA2166 growth inhibition – luminescence, BacTiterGlo, counter-screen for streptokinase expression inhibitor project, dose response (AID 1915); format: functional, organism-based;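 note: potency for reduction of bacterial viability or growth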
Vero = assay: cells; format: functional; settings: Chlorocebus sabaeus
[10] = molecular target: ATP-dependent molecular chaperone HSP82 (Candida albicans (strain WO-1) (Yeast), UniProt C4YTQ8); assay: steroid-induced GRE reporter decrease in yeast – S. cerevisiae, luminescence, Hsp90 inhibitor project, dose response (AID 2400); format: functional, cell-based;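 note: beta-galactosidase luminescence from glucocorticoid response element reporter as proxy for Hsp90 function; inhibitor potency where signal loss means Hsp90 inhibition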
Chain of ATP-dependent molecular chaperone HSP82 (C4YTQ8 whole entry): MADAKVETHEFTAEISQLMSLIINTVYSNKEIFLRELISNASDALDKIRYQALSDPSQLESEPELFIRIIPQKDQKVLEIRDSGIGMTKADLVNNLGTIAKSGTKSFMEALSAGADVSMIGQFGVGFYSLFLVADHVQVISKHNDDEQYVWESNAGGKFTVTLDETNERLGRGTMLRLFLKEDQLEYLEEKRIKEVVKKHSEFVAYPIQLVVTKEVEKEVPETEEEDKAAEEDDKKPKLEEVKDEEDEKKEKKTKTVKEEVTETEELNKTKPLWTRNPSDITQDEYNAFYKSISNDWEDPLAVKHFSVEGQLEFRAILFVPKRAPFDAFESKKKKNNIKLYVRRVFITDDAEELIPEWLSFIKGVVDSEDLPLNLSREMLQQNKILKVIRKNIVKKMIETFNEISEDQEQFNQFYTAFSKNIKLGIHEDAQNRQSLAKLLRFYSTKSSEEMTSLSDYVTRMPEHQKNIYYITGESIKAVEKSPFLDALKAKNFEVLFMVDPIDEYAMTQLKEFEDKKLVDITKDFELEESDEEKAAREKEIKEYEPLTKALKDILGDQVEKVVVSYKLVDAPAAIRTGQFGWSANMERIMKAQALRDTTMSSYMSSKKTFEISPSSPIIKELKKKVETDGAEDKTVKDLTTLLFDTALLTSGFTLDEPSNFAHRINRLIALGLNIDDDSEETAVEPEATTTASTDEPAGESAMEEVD

CAAX prenyl protease 2 = CAAX prenyl protease 2 (Homo sapiens, UniProt Q9Y256); assay: inhibition of Ras-converting CAAX protease Rce1 – biochemical, yeast membranes, quenched-peptide fluorescence, cherry-pick, dose response (AID 588849)
Chain of CAAX prenyl protease 2 (Q9Y256 whole entry): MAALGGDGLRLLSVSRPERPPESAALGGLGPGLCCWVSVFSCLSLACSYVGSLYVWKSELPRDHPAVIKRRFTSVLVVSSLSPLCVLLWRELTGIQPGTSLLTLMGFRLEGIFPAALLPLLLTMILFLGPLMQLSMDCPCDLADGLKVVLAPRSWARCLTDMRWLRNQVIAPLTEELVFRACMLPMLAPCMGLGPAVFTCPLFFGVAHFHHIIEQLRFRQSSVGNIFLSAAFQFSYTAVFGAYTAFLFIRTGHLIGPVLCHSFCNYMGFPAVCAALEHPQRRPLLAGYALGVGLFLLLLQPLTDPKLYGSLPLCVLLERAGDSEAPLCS

HeLa = assay: ATP-based viability loss in HeLa cells – cell-based, CellTiter-Glo luminescence, cherry-pick samples, cytotoxicity control for MITF activator project, dose response (AID 540259); format: functional; settings: Homo sapiens
[11] = molecular target: SWI/SNF-related matrix-associated actin-dependent regulator of chromatin subfamily A member 2 (Homo sapiens, UniProt P51531); assay: Luminescence-based cell-based high throughput dose response assay to identify activators of the function of SWI/SNF related, matrix associated, actin dependent regulator of chromatin, subfamily a, member 2 (SMARCA2, BRM).; format: functional
Chain of SWI/SNF-related matrix-associated actin-dependent regulator of chromatin subfamily A member 2 (P51531 whole entry): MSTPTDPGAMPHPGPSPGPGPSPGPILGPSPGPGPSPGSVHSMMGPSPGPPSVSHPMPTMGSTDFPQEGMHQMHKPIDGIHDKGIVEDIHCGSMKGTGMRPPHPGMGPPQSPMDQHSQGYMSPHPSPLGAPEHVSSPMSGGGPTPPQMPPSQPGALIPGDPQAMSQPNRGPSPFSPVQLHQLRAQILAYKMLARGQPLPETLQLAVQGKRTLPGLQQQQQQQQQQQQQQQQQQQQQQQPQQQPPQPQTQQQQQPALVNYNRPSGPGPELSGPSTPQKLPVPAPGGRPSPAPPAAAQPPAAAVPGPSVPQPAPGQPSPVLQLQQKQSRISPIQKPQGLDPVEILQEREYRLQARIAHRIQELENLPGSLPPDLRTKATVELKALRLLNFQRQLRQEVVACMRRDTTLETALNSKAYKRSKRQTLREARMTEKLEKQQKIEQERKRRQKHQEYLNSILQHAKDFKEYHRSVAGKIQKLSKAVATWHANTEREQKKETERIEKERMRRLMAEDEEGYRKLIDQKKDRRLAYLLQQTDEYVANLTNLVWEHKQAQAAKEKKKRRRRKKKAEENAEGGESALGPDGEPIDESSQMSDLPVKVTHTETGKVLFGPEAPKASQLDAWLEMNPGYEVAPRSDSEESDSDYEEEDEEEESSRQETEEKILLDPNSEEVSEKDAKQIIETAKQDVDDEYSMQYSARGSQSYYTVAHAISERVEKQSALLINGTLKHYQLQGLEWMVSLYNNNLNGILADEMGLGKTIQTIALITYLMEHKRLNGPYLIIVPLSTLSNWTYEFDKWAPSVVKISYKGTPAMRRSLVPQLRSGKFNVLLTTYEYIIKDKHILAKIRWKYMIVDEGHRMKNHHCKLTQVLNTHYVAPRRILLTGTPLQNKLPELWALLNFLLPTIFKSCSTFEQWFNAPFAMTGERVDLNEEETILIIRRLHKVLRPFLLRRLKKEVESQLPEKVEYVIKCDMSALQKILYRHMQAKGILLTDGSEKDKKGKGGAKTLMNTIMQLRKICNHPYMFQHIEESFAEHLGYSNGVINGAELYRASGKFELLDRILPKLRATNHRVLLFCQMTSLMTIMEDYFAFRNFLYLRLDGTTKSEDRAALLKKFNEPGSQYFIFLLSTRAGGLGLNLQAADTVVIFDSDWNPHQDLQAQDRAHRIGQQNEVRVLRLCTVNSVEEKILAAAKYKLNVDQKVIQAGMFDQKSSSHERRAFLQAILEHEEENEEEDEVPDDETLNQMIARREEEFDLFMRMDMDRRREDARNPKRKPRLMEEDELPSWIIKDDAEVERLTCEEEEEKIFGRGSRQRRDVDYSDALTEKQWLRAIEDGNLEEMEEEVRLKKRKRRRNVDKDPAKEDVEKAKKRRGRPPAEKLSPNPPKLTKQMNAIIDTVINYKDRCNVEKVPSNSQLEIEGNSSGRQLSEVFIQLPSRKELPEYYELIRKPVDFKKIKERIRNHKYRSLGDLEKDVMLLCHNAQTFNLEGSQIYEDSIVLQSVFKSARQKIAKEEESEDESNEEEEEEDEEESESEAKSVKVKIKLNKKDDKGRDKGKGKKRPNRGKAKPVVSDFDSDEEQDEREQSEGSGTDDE

[12] = Counterscreen for activators of the function of SWI/SNF related, matrix associated, actin dependent regulator of chromatin, subfamily a, member 2 (SMARCA2, BRM): Luminescence-based cell-based high throughput dose response assay to identify non-selective compounds using the VP16 reporter assay.; format: functional
[13] = molecular target: Dual specificity tyrosine-phosphorylation-regulated kinase 1A (Rattus norvegicus, UniProt Q63470); format: biochemical, Homo sapiens
[14] = Trypanosoma cruzi growth suppression in host cells – NIH3T3 host cells, beta-gal luminescence, confirmation (AID 2044); format: functional, cell-based;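 note: intracellular parasites grown in NIH/3T3 mouse fibroblasts as host cells; luminescent beta-galactosidase reporter signal from transgenic T. cruzi replicating inside host cells; inhibitors lower the luminescence signal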
[15] = NIH3T3 cell viability loss – ATP luminescence, mouse fibroblasts, counter-screen, dose response (AID 2010); format: functional, cell-based;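 note: cells exposed to compound for about 90 hours before reading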
Trypsin = Trypsin (Sus scrofa, UniProt P00761); assay: trypsin protease activity blockade – biochemical, quenched peptide fluorescence, cherry-pick, selectivity assay for Rce1 protease inhibitor project, dose response (AID 488789)
Chain of Trypsin (P00761 whole entry): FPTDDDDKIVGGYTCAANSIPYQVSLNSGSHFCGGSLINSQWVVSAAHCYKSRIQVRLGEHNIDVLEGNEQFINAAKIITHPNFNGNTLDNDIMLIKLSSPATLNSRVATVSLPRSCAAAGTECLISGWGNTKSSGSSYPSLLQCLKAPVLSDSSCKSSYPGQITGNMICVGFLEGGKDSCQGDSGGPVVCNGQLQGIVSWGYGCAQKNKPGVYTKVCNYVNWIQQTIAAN

Cysteine protease ATG4B = Cysteine protease ATG4B (Homo sapiens, UniProt Q9Y4P1); format: functional;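 note: Fluorescence-based dose-response confirmation assay measuring inhibition of ATG4B activity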
Chain of Cysteine protease ATG4B (Q9Y4P1 whole entry): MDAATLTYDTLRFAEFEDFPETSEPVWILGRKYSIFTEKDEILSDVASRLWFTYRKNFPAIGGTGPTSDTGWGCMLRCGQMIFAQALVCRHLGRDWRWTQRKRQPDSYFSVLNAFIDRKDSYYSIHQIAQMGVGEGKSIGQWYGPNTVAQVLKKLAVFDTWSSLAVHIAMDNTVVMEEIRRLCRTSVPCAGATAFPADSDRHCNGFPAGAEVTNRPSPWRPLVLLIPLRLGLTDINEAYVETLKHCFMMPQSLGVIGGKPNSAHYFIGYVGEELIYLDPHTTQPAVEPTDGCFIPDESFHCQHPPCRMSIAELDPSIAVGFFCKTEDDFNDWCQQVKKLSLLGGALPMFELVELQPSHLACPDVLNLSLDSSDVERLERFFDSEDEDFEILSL

Phospholipase A2 = Phospholipase A2 (Homo sapiens, UniProt P04054); format: functional;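 note: confirmatory dose-response counterscreen on phospholipase A2, testing hits that came from an ultra-high-throughput screen for ATG4B inhibitors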
Chain of Phospholipase A2 (P04054 whole entry): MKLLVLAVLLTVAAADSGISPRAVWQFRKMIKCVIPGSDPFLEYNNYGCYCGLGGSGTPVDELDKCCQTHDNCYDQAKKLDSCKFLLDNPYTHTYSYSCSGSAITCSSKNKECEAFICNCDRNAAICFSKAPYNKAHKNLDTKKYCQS

Escherichia coli = assay: microbe, parasite or virus in culture

Chain of Beta-2 adrenergic receptor (P07550 whole entry): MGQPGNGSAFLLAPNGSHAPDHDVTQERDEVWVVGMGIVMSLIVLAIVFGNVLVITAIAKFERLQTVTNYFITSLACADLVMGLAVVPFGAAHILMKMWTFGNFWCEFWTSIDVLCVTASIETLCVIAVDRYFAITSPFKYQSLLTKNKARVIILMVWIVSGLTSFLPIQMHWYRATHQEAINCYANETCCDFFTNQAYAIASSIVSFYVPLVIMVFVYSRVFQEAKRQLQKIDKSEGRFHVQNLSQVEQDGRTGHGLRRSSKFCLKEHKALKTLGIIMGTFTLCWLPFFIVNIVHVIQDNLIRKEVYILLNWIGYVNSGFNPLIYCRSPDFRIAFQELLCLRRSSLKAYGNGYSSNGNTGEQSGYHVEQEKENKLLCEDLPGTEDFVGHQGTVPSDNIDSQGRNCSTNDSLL

Cc1ccc(NC(=O)C(c2ccc(Cl)cc2)N2CCCCC2)cc1 (stereo not given)
EC50 [1]: 2.99 µM (active)

Cc1c(CCC(C)C)c(O)n2c(nc3ccccc32)c1C#N
EC50 [2]: 69.3 µM (active) | EC50 [3]: > 120 µM (not active) | EC50 [4]: > 120 µM (not active) | IC50 [5]: 38.6 µM (active)

COc1ccc(C(=O)NC(=S)NNC(=O)c2ccc(C)cc2)cc1
EC50 [6]: > 150 µM (inactive) | EC50 [7]: 361 nM (active) | EC50 [8]: 1.12 µM (active) | EC50 [9]: > 180 µM (inactive) | EC50 (Streptococcus): 6.72 µM (active) | CC50 (Vero): > 25 µM (active) | EC50 [10]: 5.92 µM (active)

C/C=C(/C)C(=O)O[C@H]1[C@@H](O)c2c(ccc3ccc(=O)oc23)OC1(C)C
AC50 (CAAX prenyl protease 2): 24.9 µM (active)

Cc1nc(COC(=O)c2c(C)nn(-c3ccccc3)c2C)cs1
AC50 (HeLa): 76 µM (active) | EC50 [11]: > 91.1 µM (inactive) | EC50 [12]: > 91.1 µM (inactive)

Cc1oc2ncnc(N)c2c1C
AC50 [13]: 1.4 µM (active)

COc1ccc(/C=C/c2nc3ccccc3n2Cc2ccccc2OC)cc1
EC50 [14]: 663 nM (active) | EC50 [15]: > 60 µM (inconclusive) | AC50 (Trypsin): 3.43 µM (active) | AC50 (CAAX prenyl protease 2): 3.33 µM (active)

Cn1c(-c2ncc(F)cc2F)cc2onc(-c3c(F)cccc3Cl)c2c1=O
AC50 (HeLa): 98 µM (active)

COc1ccc(N2C(=O)c3ccccc3NC23CCC(C)CC3)cc1 (stereo not given)
IC50 (Cysteine protease ATG4B): 21.1 µM (inactive) | IC50 (Phospholipase A2): 7.99 µM (active)

COC(=O)Nc1ccc2c(c1)N(C(=O)CCN1CCOCC1)c1ccccc1S2
AC50 (Escherichia coli): 50.2 µM (active)
